# Test results as given in US20130217702A1 (Richter Gedeon Nyrt., priority 2010, published 2013).
# Tests used:
# [1] = target: T1, human recombinant bradykinin B1 receptor (Homo sapiens, UniProt P46663); assay: Human recombinant bradykinin B1 receptor competitive radioligand binding; conditions: hB1 expressed in CHO cells, [3H]-[Des-Arg10] Kallidin radioligand; read-out: B1 binding
# T1 construct: host or cells: CHO cells, clone hB1-A5
# T1 sequence (P46663 1-353): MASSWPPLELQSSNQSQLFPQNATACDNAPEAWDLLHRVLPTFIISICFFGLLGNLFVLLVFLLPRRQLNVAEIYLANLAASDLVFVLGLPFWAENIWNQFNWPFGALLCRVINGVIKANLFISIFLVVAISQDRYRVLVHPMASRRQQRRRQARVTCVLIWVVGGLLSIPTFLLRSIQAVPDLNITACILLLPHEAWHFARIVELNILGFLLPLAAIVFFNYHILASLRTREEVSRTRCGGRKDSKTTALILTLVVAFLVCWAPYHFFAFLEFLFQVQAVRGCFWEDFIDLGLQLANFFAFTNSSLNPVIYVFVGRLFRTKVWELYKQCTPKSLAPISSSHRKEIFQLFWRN
# Procedure, shortened: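 Competition radioligand binding on CHO-expressed hB1 membranes, using [3,4-prolyl-3,4-^3H(N)]-[Des-Arg^10] Kallidin as tracer, 15 min at 25° C. Excess Lys-des-Arg^9-Bradykinin (10 μM) set nonspecific binding. Sigmoidal fits of at least seven concentrations gave IC50, converted to Ki via Cheng-Prusoff; KD from Scatchard.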
# [2] = target: T2, recombinant human B1 receptors (Homo sapiens, UniProt P46663); assay: Functional assay: antagonist potency by cytosolic calcium measurement (plate reader fluorimeter) in CHO-B1 cells, agonist LysDABK; format: cell-based; conditions: CHO-B1 cells, inhibition of LysDABK (EC80)-evoked [Ca2+]i elevation; read-out: B1 func.
# T2 construct: host or cells: CHO (CHO-B1)
# T2 sequence (P46663 1-353): T1 sequence (P46663 1-353)
# Procedure, shortened: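 IC50 is the concentration giving half-maximal inhibition of the LysDABK (EC80) calcium response, fitted from at least three experiments. CHO cells stably expressing human B1 were dye-loaded, exposed to compound for 20-25 min, then read by fluo-4 fluorescence (ΔF/F) at 37 °C.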
Compound,Ki [1],IC50 [2]
"Cc1nc(-c2c(Cl)c3ccccc3n2-c2ccc(CNC(=O)C3(NC(=O)c4cc(C5CC5)on4)CC3)c(F)c2)no1 [Example 110, 5-Cyclopropyl-isoxazole-3-carboxylic acid (1-{4-[3-chloro-2-(5-methyl-[1,2,4]oxadiazol-3-yl)-indol-1-yl]-2-fluoro-benzylcarbamoyl}-cyclopropyl)-amide]",< 20 nM,< 20 nM
"Cc1nnc(-c2c(Cl)c3ccccc3n2-c2ccc(CNC(=O)C3(NC(=O)c4cncnc4)CC3)cc2)o1 [Example 184, Pyrimidine-5-carboxylic acid (1-{4-[3-chloro-2-(5-methyl-[1,3,4]oxadiazol-2-yl)-indol-1-yl]-benzylcarbamoyl}-cyclopropyl)-amide]",< 20 nM,< 20 nM
"Cc1nc(-c2c(Cl)c3ccccc3n2-c2ccc(CNC(=O)C3(NC(=O)C4CCC4)CC3)cc2)no1 [Example 143, Cyclobutanecarboxylic acid (1-{4-[3-chloro-2-(5-methyl-[1,2,4]oxadiazol-3-yl)-indol-1-yl]-benzylcarbamoyl}-cyclopropyl)-amide]",< 20 nM,< 20 nM
"Cc1noc(-c2c(Cl)c3ccccc3n2-c2ccc(CNC(=O)C3(NC(=O)C(F)(F)F)CC3)cc2)n1 [Example 194, 1-(2,2,2-Trifluoro-acetylamino)-cyclopropanecarboxylic acid 4-[3-chloro-2-(3-methyl-[1,2,4]oxadiazol-5-yl)-indol-1-yl]-benzylamide]",< 20 nM,< 20 nM
"COc1cc(C(=O)NC2(C(=O)NCc3ccc(-n4c(-c5nc(C)no5)c(Cl)c5ccccc54)cc3)CC2)on1 [Example 193, 3-Methoxy-isoxazole-5-carboxylic acid (1-{4-[3-chloro-2-(3-methyl-[1,2,4]oxadiazol-5-yl)-indol-1-yl]-benzylcarbamoyl}-cyclopropyl)-amide]",< 20 nM,< 20 nM
"Cn1nnc(-c2c(Cl)c3cc(F)ccc3n2-c2ccc(CNC(=O)C3(NC(=O)C(F)(F)F)CC3)cc2)n1 [Example 12, 1-(2,2,2-Trifluoro-acetylamino)-cyclopropanecarboxylic acid 4-[3-chloro-5-fluoro-2-(2-methyl-2H-tetrazol-5-yl)-indol-1-yl]-benzylamide]",< 20 nM,< 20 nM
"COc1cc(C(=O)NC2(C(=O)NCc3ccc(-n4c(-c5noc(C)n5)c(C)c5cc(F)ccc54)cc3)CC2)on1 [Example 200, 3-Methoxy-isoxazole-5-carboxylic acid (1-{4-[5-fluoro-3-methyl-2-(5-methyl-[1,2,4]oxadiazol-3-yl)-indol-1-yl]-benzylcarbamoyl}-cyclopropyl)-amide]",< 20 nM,< 20 nM
"Cc1cc(C(=O)NC2(C(=O)NCc3ccc(-n4c(-c5noc(C)n5)c(Cl)c5ccccc54)cc3)CC2)no1 [Example 135, 5-Methyl-isoxazole-3-carboxylic acid (1-{4-[3-chloro-2-(5-methyl-[1,2,4]oxadiazol-3-yl)-indol-1-yl]-benzylcarbamoyl}-cyclopropyl)-amide]",< 20 nM,20 to 100 nM
"Cc1nc(-c2c(Cl)c3ccccc3n2-c2ccc(CNC(=O)C3(NC(=O)c4cccnc4Cl)CC3)c(F)c2)no1 [Example 104, 2-Chloro-N-(1-{4-[3-chloro-2-(5-methyl-[1,2,4]oxadiazol-3-yl)-indol-1-yl]-2-fluoro-benzylcarbamoyl}-cyclopropyl)-nicotinamide]",< 20 nM,< 20 nM
"COc1cc(C(=O)NC2(C(=O)NCc3ccc(-n4c(C#N)cc5cc(Cl)ccc54)cc3)CC2)on1 [Example 43, 3-Methoxy-isoxazole-5-carboxylic acid {1-[4-(5-chloro-2-cyano-indol-1-yl)-benzylcarbamoyl]-cyclopropyl}-amide]",< 20 nM,20 to 100 nM
"Cc1nc(-c2c(Cl)c3ccccc3n2-c2ccc(CNC(=O)C3(NC(=O)c4cccc(F)c4)CC3)c(F)c2)no1 [Example 105, N-(1-{4-[3-Chloro-2-(5-methyl-[1,2,4]oxadiazol-3-yl)-indol-1-yl]-2-fluoro-benzylcarbamoyl}-cyclopropyl)-3-fluoro-benzamide]",< 20 nM,< 20 nM
"Cn1nnnc1-c1c(Cl)c2ccccc2n1-c1ccc(CNC(=O)C2(NC(=O)C(F)(F)F)CC2)cc1 [Example 8, 1-(2,2,2-Trifluoro-acetylamino)-cyclopropanecarboxylic acid 4-[3-chloro-2-(1-methyl-1H-tetrazol-5-yl)-indol-1-yl]-benzylamide]",< 20 nM,< 20 nM
"COC(=O)c1c(Cl)c2c(F)cccc2n1-c1ccc(CNC(=O)C2(NC(=O)c3cc(OC)no3)CC2)cc1 [Example 68, 3-Chloro-4-fluoro-1-{4-[({1-[(3-methoxy-isoxazole-5-carbonyl)-amino]-cyclo-propanecarbonyl}-amino)-methyl]-phenyl}-1H-indole-2-carboxylic acid methyl ester]",< 20 nM,< 20 nM
"COc1ccc2c(c1)c(Cl)c(-c1nc(C)no1)n2-c1ccc(CNC(=O)C2(NC(=O)c3cccnc3F)CC2)cc1 [Example 118, N-(1-{4-[3-Chloro-5-methoxy-2-(3-methyl-[1,2,4]oxadiazol-5-yl)-indol-1-yl]-benzylcarbamoyl}-cyclopropyl)-2-fluoro-nicotinamide]",< 20 nM,< 20 nM
"COc1cc(C(=O)NC2(C(=O)NCc3ccc(-n4c(C#N)c(Cl)c5ccccc54)cc3)CC2)on1 [Example 39, 3-Methoxy-isoxazole-5-carboxylic acid {1-[4-(3-chloro-2-cyano-indol-1-yl)-benzyl-carbamoyl]-cyclopropyl}-amide]",< 20 nM,< 20 nM
"Cc1nc(-c2c(Cl)c3ccccc3n2-c2ccc(CNC(=O)C3(NC(=O)c4cccc(=O)[nH]4)CC3)cc2)no1 [Example 162, 6-Oxo-1,6-dihydro-pyridine-2-carboxylic acid (1-{4-[3-chloro-2-(5-methyl-[1,2,4]oxadiazol-3-yl)-indol-1-yl]-benzylcarbamoyl}-cyclopropyl)-amide]",< 20 nM,< 20 nM
